In patent US9907842B2, “Cytotoxic T lymphocyte inducing immunogens for prevention treatment and diagnosis of cancer” (Immunotope, Inc., priority 2009, dated 2018):

What was measured:
Assay type in all cases: cell-based, human
[1] = system: T2 cells loaded with the corresponding synthetic peptide and HLA-A2+ lung cancer cells lines [CRL-5865, CRL-5944 and NCI-H522]; experiment: Interferon-γ ELISpot with peptide-specific CTL from healthy HLA-A2+ donors; conditions: CTL from PBMC of two healthy HLA-A2+ donors; FIG. 1
Description: (§1) PBMC were purified from HLA-A2^+ normal donor blood using lymphocyte separation media (Cappel ICN Biomedical, Aurora, Ohio). PBMC (5.3×10^6) were added to individual wells of a 24-well cluster plate (Costar, Corning, N.Y.) in 1.0 ml of serum-free AIM-V medium (Life Technologies) and allowed to adhere for 60 min at 37° C. Non-adherent cells were removed and saved as a source of effector T cells. Adherent PBMC (˜8.3×10^5/well) were then pulsed with […] synthetic peptides in serum-free AIM-V medium containing […] β2-microglobulin (Calbiochem-Novabiochem, San Diego, Calif.) and incubated for 2 h at 37° C. Unbound peptides were aspirated and the wells washed with media.
(§2) Monocyte-derived DC were generated as follows. PBMC (5.3×10^7) were allowed to adhere in T-75 flasks (Corning) in 10 ml of serum-free AIM-V medium for 60 min at 37° C. Non-adherent cells were collected as a source of effector T cells and pooled with the previous collection above. Adherent monocytes in flasks were then exposed to recombinant human granulocyte macrophage colony stimulating factor (GM-CSF, 25 ng/ml; Peprotech) and recombinant human IL-4 (100 ng/ml; Peprotech) in 10 ml of AIM-V medium containing 10% heat-inactivated FBS. DC obtained by this method [immature DC (iDC)] are characterized by expression of low levels of CD83, CD80, CD86, and HLA class I and class II molecules (data not shown).
(§3) Mature DC (mDC) were obtained by exposing day 5 DC cultures to recombinant soluble CD40 ligand (sCD40L; Peprotech) at […] for 24 h in the presence of 25 ng/ml GM-CSF and are characterized by expression of high levels of CD80, CD86, and HLA class I and class II molecules.mDC were harvested, washed, pulsed with 5 mg/ml peptide in serum-free AIM-V medium and irradiated (5000 rad) prior to use as stimulators.
(§4) The protocol used here is a modification of the method described by Plebanski et al. (Eur. J. Immunol. 25:1783, (1995)). CTL to peptide were generated by 3±4 cycles of stimulation with peptide-loaded APC. For the first round of stimulation (day 0), T cells or non-adherent PBMC from above (2.3×10^6/ml or 4.3×10^6 per well) were added in bulk (CD4^+, CD8^+, NK, etc.) to adherent PBMC-loaded peptides in serum-free medium ([…]), β2-microglobulin ([…]) (Calbiochem-Novabiochem), recombinant human IL-7 (5 ng/ml) (Peprotech) and keyhole limpet hemocyanin (5 mg/ml) (Sigma, St Louis, Mo.). Cultures were re-stimulated with iDC every 7 days, pulsed with varying amounts of peptide (second round 25 mg/ml, third round 10 mg/ml) and irradiated (5000 rad) on day 8. At each re-stimulation, the T cells were transferred to new plates by first aspirating 70% of spent media in wells and then transferring the pooled contents to a new plate. Fresh IL-7 was added at each re-stimulation. The responder:stimulator (T cell:DC) ratio was set at 20 for each stimulation. Recombinant human IL-2 (10 U/ml) was added on day 5 after each re-stimulation.
(§5) Prior to CTL assays, the T cells were harvested and CD8^+ T cells were purified by positive selection using CD8^+ microbeads immunomagnetic cell separation with MACS kit (Miltenyi Biotec, Auburn, Calif.). If a fourth round of stimulation was necessary following CTL analysis, the CTL were pulsed as before, except with 5±10 mg/ml of peptide.
(§6) The peptide specific CTLs were assessed for recognition and/or lysis of peptide-loaded T2 cells as well as various lung normal and tumor target cells. After two to four rounds of restimulation, cultures were tested for cytotoxic activity against the peptide loaded and normal and tumor targets. Peptide-pulsed T2 cells (1 μg/ml peptide for 2 hr at 37° C.), irrelevant HLA-A2 peptides pulsed T2 cells were used as controls. […]

[2] = system: T2 cells loaded with the corresponding synthetic peptide and HLA-A2+ lung cancer cells lines [CRL-5865, CRL-5944 and NCI-H522]; experiment: Granzyme B ELISpot with peptide-specific CTL from healthy HLA-A2+ donors; conditions: CTL from PBMC of two healthy HLA-A2+ donors; FIG. 2
Description: as §1, §2, §3, §4, §5, §6

[3] = system: T2 cells loaded with the corresponding synthetic peptide and HLA-A2+ lung cancer cells lines [CRL-5865, CRL-5944 and NCI-H522]; experiment: Interferon-γ ELISpot with peptide-specific CTL from a HLA-A2+ lung cancer patient; conditions: CTL from PBMC of a HLA-A2+ donor with lung cancer; FIG. 3A
Description: as §4, with “Recombinant human IL-2 (10 U/ml) was added on day 5 after each re-stimulation.” left out
(§7) The peptide specific CTLs were assessed for recognition and/or lysis of peptide-loaded T2 cells as well as various lung normal and tumor target cells. […] Recognition of specific antigens by peptide-specific CTL was measured by production of IFN-gamma and granzyme in the ELISPOT assay (Ramakrishna, V., M. M. Ross, M. Petersson, C. C. Gatlin, C. E. Lyons, C. L. Miller, H. E. Myers, M. McDaniel, L. R. Karns, R. Kiessling, G. Parmiani, and D.C. Flyer. (2003) Int Immunol 15:751-763; Morse, M. A., S. K. Nair, P. J. Mosca, A. C. Hobeika, T. M. Clay, Y. Deng, D. Boczkowski, A. Proia, D. Neidzwiecki, P. A. Clavien, H. I. Hurwitz, J. Schlom, E. Gilboa, and H. K. Lyerly. (2003) Cancer Invest 21:341-349). […]
PBMC from a HLA-A2^+ donor with lung cancer were in vitro stimulated with synthetic peptides corresponding to each of the three selected lung cancer epitopes (SEQ ID 82, SEQ ID 34 and SEQ ID 67). […] Interferon-γ producing cells were quantitated using an Immunospot reader. […]

[4] = system: T2 cells loaded with the corresponding synthetic peptide and HLA-A2+ lung cancer cells lines [CRL-5865, CRL-5944 and NCI-H522]; experiment: Granzyme B ELISpot with peptide-specific CTL from a HLA-A2+ lung cancer patient; conditions: CTL from PBMC of a HLA-A2+ lung cancer patient; FIG. 3B
Description: The protocol used here is a modification of the method described by Plebanski et al. (Eur. J. Immunol. 25:1783, (1995)). CTL to peptide were generated by 3±4 cycles of stimulation with peptide-loaded APC. For the first round of stimulation (day 0), T cells or non-adherent PBMC from above (2.3×10^6/ml or 4.3×10^6 per well) were added in bulk (CD4^+, CD8^+, NK, etc.) to adherent PBMC-loaded peptides in serum-free medium ([…]), β2-microglobulin ([…]) (Calbiochem-Novabiochem), recombinant human IL-7 (5 ng/ml) (Peprotech) and keyhole limpet hemocyanin (5 mg/ml) (Sigma, St Louis, Mo.). Cultures were re-stimulated with iDC every 7 days, pulsed with varying amounts of peptide (second round 25 mg/ml, third round 10 mg/ml) and irradiated (5000 rad) on day 8. At each re-stimulation, the T cells were transferred to new plates by first aspirating 70% of spent media in wells and then transferring the pooled contents to a new plate. Fresh IL-7 was added at each re-stimulation. The responder:stimulator (T cell:DC) ratio was set at 20 for each stimulation. Recombinant human IL-2 (10 U/ml) was added on day 5 after each re-stimulation. […]
as §7
PBMC from a HLA-A2^+ lung cancer patient were in vitro stimulated with synthetic peptides corresponding to each of the three selected lung cancer epitopes (SEQ ID 82, SEQ ID 34 and SEQ ID 67). […] Granzyme B producing cells were quantitated using an Immunospot reader. […]

Sequence	recognition of targets by peptide-specific CTL (Interferon-γ producing cells) [1]	cytolytic activity of peptide-specific CTL (Granzyme B producing cells) [2]	recognition of targets by peptide-specific CTL (Interferon-γ producing cells) [3]	cytolytic activity of peptide-specific CTL (Granzyme B producing cells) [4]
DQFQKVLSL (listed as Homo sapiens) [SEQ ID 08]	recognize peptide loaded targets as well as lung cancer cells	are cytolytic	–	–
GMYGKIAVMEL (listed as Homo sapiens) [SEQ ID 19]	recognize peptide loaded targets as well as lung cancer cells	are cytolytic	–	–
KIYQWINEL (listed as Homo sapiens) [SEQ ID 29]	recognize peptide loaded targets as well as lung cancer cells	are cytolytic	–	–
KLGEFAKVLEL (listed as Homo sapiens) [SEQ ID 33]	recognize peptide loaded targets as well as lung cancer cells	are cytolytic	–	–
KLIPFLEKL (listed as Homo sapiens) [SEQ ID 34]	recognize peptide loaded targets as well as lung cancer cells	are cytolytic	recognize peptide loaded targets as well as lung cancer cells	are cytolytic
KLSLVAAML (listed as Homo sapiens) [SEQ ID 36]	recognize peptide loaded targets as well as lung cancer cells	are cytolytic	–	–
RLLEVPVML (listed as Homo sapiens) [SEQ ID 67]	recognize peptide loaded targets as well as lung cancer cells	are cytolytic	recognize peptide loaded targets as well as lung cancer cells	are cytolytic
VLVPVLVMV (listed as Homo sapiens) [SEQ ID 82]	recognize peptide loaded targets as well as lung cancer cells	are cytolytic	recognize peptide loaded targets as well as lung cancer cells	are cytolytic
